Laboratory results taken from publication PMC2877818, “Thermodynamics of RTA3 peptide binding to membranes and consequences for antimicrobial activity^” (Biochimica et Biophysica Acta, 2010).
Like-named read-outs stand apart in the source and are kept apart here.

Columns and labels:
E. coli 345-2 = format: cell-based; details: broth microdilution, Mueller Hinton (plus cations) broth, 24 hours at 37 °C; triplicate, averaged
[1] = system: E. coli 122 inner membrane; test: Inner membrane permeabilization to ONPG; details: read-out: IM permeabilization: peptide concentration resulting in half-maximal translocated substrate turnover, PBS pH 7.4, 30 °C, triplicate
Method: Inner membrane permeability was determined by measuring the β-galactosidase activity of lactose permease-deficient E. coli at 30 °C using ONPG as substrate. E. coli cells overexpressing the β- galactosidase enzyme (E. coli 122) were grown to logarithmic phase, washed, and resuspended (10^8 CFU/mL) in phosphate buffered saline pH 7.4. About 90 µL of 1 × 10^7 CFU of the test organism containing 0.4 mg/mL ONPG was then added to 96-well microtitre plates containing serial twofold dilutions of antimicrobial peptides. The production of o-nitrophenol was monitored spectrophotometrically at 420 nm. An equivalent volume of water replaced the peptide solution in the control assay. All data were measured in triplicate.

P. aeruginosa ATCC 27853 = format: cell-based, Pseudomonas aeruginosa; details: broth microdilution, Mueller Hinton (plus cations) broth, 24 hours at 37 °C, no visible growth; triplicate, averaged
Method: (§1) Minimum inhibitory concentrations (MIC) of the peptides were determined by broth microdilution according to the Clinical and Laboratory Standards Institute. About 90 µL of 0.5–1 × 10^6 CFU/mL of Pseudomonas aeruginosa ATCC 27853 and E. coli ATCC 25922 in Mueller Hinton media (plus cations) broth (BD, Baltimore, MD, USA) was incubated in 96-well microtitre plates with serial twofold dilutions of the peptides. Minimum inhibitory concentrations (MICs) were defined as the lowest peptide concentration with no visible growth of bacteria after 24 hours at 37 °C. All measurements were made in triplicate and averaged.

[2] = system: E. coli 345-2 outer membrane; test: Outer membrane permeabilization to nitrocefin; details: read-out: OM permeabilization: peptide concentration resulting in half-maximal translocated substrate turnover, triplicate
Method: Outer and inner membrane permeabilities were determined as described previously [16]. E. coli cells overexpressing β-lactamase were grown to logarithmic phase, washed, and resuspended (10^8 CFU/mL) in 10 mM HEPES buffer pH 7.4. About 90 µL of 1 × 10^7 CFU of the test organism (E. coli 345-2) containing 20 µg/mL nitrocefin was then added to 96-well microtitre plates containing serial twofold dilutions of antimicrobial peptides. Nitrocefin cleavage was monitored by measuring A490. All data were measured in triplicate.

E. coli ATCC 25922 = format: cell-based; details: broth microdilution, Mueller Hinton (plus cations) broth, 24 hours at 37 °C, no visible growth; triplicate, averaged
Method: as §1

E. coli UB 122 = format: cell-based; details: broth microdilution, Mueller Hinton (plus cations) broth, 24 hours at 37 °C; triplicate, averaged

**Q.** With Polymyxin E as the substance, how does the “MIC E. coli 345-2” value (E. coli 345-2) read?
**A.** 0.5 µM

**Q.** What about the EC50 ([1]; +Mg2+ (0.4 mM MgCl2), ONPG) of the same substance?
**A.** > 100 µM

**Q.** What about the EC50 ([1]; −Mg2+, ONPG 0.4 mg/mL, 420 nm) of the same substance?
**A.** > 40 µM

**Q.** And the “MIC P. aeruginosa ATCC 27853” value (P. aeruginosa ATCC 27853)?
**A.** 2 µM

**Q.** And the EC50 ([2]; +Mg2+ (0.4 mM MgCl2), nitrocefin, 10 mM HEPES pH 7.4)?
**A.** 1.8 µM

**Q.** And the EC50 ([2]; −Mg2+, nitrocefin 20 µg/mL, 10 mM HEPES pH 7.4, A490)?
**A.** 2 µM

**Q.** What about the “MIC E. coli ATCC 25922” value (E. coli ATCC 25922) of the same substance?
**A.** 1 µM

**Q.** And the “MIC E. coli UB 122” value (E. coli UB 122)?
**A.** 0.5 µM
